From patent US10765631B2, “Liposomes for modulating Wiskott-Aldrich syndrome protein” (BAR-ILAN UNIVERSITY, priority 2013, dated 2020)

T1: WASp (Homo sapiens, UniProt P42768)
T1 construct: expressed in transfected cells; host or cells: 293T cells, calcium-phosphate transfection
T1 sequence (P42768 1-502): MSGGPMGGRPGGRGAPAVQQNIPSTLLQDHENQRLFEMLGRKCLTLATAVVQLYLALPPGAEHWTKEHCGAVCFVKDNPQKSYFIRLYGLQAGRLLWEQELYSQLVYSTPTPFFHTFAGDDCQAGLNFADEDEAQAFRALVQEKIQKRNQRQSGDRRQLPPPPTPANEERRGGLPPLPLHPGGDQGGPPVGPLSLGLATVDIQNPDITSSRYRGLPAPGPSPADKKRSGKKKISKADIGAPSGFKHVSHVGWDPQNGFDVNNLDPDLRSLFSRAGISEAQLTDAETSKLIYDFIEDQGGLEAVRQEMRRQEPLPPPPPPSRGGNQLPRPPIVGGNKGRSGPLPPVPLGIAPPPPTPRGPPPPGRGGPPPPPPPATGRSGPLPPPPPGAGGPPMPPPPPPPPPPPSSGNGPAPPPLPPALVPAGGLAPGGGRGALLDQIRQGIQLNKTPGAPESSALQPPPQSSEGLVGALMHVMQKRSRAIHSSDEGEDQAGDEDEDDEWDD


Tests used:
[1] = molecular target: T1, WASp; assay: YFP-WASp expression in 293T cells treated with compounds, densitometric Western blot analysis; type: cell-based; conditions: for effect on WASp expression in cells: 293T cells transfected with YFP-WASp; for Relative expression: YFP-WASp expression in transfected 293T cells relative to DMSO solvent control, compound 10-80 μM, overnight
Procedure: Compounds were obtained and from ChemBridge Corporation. San Diego, Calif., USA. Of the compounds obtained, 14 were considered potential agents for modulating WASp expression, by their potential to bind to WASp. The 14 compounds were tested in 293T cells using the following procedure.
The compounds were individually dissolved in DMSO to make a stock solution of 20 millimolar (mM) and kept stored at −20° C. 293T cells were prepared to mid log phase, ˜60-80% confluence, and were transfected with 15 μg of yellow-fluorescent protein, YFP-WASp plasmid (6023), using a Calcium-phosphate transfection protocol. Cells were collected and counted. 1-2×10^6 cells per sample in 6-well supplemented with 2-4 ml complete (10% FCS) DMEM medium (0.5×10^6 cells/ml). Cells were plated in 6 wells (0.5×10^6 cells/ml×Number of samples) and pre-incubate at 37°, 5% CO2 for at least 4 h (for the cells to adhere. 1 ml of the medium in which the cells were grown is taken, and added to the compound (10-80 μM). The medium, with the compound, was added back to the cells in the plate, drop-wise. Cells were incubated overnight at 37° C., 5% CO2. Densitometric analysis of YFP-WASp expression in the cells treated with the compounds, using Western blot analysis. The compounds with a relative 1.5-fold change (either increase or decrease) of expression relative cells which were exposed to DMSO solvent control, are listed in table 2 below. Table 2 lists the compounds' modulation of WASp expression levels as a function of relative expression of WASp in relation to control.

[2] = tested on: WASp; assay: WASp gene silencing by siRNA in T cell leukemic cells, Western blot; type: cell-based
Procedure: As shown in the previous examples, WASp is overexpressed in malignant cells. Gene silencing of WASp expression using siRNA was tested. WASp was silenced using commercially available siRNA oligonucleotides. A mixture of the following oligonucleotides, each in the form of double-stranted siRNA duplex with its corresponding sequence at an amount of 500 pico-mole was introduced to 1×10^7 cells:
These experiments were performed in T cell leukemic cells. Silencing efficiency of about 90% was achieved 48 hours after transfection, when compared to non-specific (N.S) siRNA-treated cells.
A number of siRNA duplexes were tested in cells as in example 1E. The following double-stranded siRNA sequences were used: SEQ ID NO. 1 and its complementary sequence; SEQ ID NO. 2 and its complementary sequence; SEQ ID NO. 3 and its complementary sequence; SEQ ID NO. […] and its complementary sequence (designated as 1-4). 500 picomole of each double-stranded siRNA was used. In addition, a nonsense siRNA sequence (designated as “N.S. siRNA”) was used as a control. Control N.S. siRNA was made from 125 duplexes of each of the siRNA molecules in Table 5:
In addition, a mixture of the siRNAs comprising SEQ ID NOS. 1-4 (designated as “Mix”) was also used, comprising 125 picomole of each. Upon analysis with Western blot, it was shown that all siRNA duplexes were effective in downregulating WASp, with the siRNA of SEQ. ID NO.

effect on WASp expression in cells [1] | Relative expression [1] | Molecule | Silencing efficiency ([2]; 48 hours after transfection, T cell leukemic cells, 500 pico-mole to 1×10^7 cells, compared to non-specific (N.S) siRNA-treated cells) | downregulating WASp ([2]; Western blot, 500 picomole double-stranded siRNA, cells as in example 1E, FIG. 2)
increase WASp expression | 6.7 | CC(=O)N[C@H]1C[C@@H](c2ccc3c(c2)nnn3C)O[C@@H](c2ccc(Cl)cc2)C1 [Compound 6, N-[(2R,4R,6S)-2-(4-chloro-phenyl)-6-(1-methyl-1H-1,2,3-benzotriazol-5-yl)tetrahydro-2H-pyran-4-yl]acetamide] |  | 
increase WASp expression | 2.1 | Cc1cc(C)n(C2CCN(C(=O)c3cc(COc4ccccc4)[nH]n3)C2)n1 (centres unmarked) [Compound 7, 3,5-dimethyl-1-(1-{[5-(phenoxy-methyl)-1H-pyrazol-3-yl]carbonyl}pyrrolidin-3-yl)-1H-pyrazole] |  | 
increase WASp expression | 1.5 | COCC1CCN(c2ccc(C(=O)N3CCC(N4CCOCC4)CC3)cn2)C1 (centres unmarked) [Compound 4, 4-[1-({6-[3-(methoxymethyl)pyrrolidin-1-yl]pyridin-3-yl}carbonyl)piperi-din-4-yl]morpholine] |  | 
effective in decreasing WASp expression | 0.3 | COc1ccc(CN2C(=O)N(CC(C)C)C3(CCN(C4Cc5ccccc5C4)CC3)C2=O)cc1 [Compound 13, 8-(2,3-dihydro-1H-inden-2-yl)-1-isobutyl-3-(4-methoxy-benzyl)-1,3,8-triazaspiro[4.5] decane-2,4-dione] |  | 
effective in decreasing WASp expression | 0.5 | COc1ccccc1-c1cccc(C(=O)NC(C)Cc2ccccn2)c1 (centres unmarked) [Compound 14, 2′-methoxy-N-(1-methyl-2-pyridin-2-ylethyl)biphenyl-3-carboxamide] |  | 
effective in decreasing WASp expression | 0.6 | CC(C)c1n[nH]c2c1CN(C(=O)c1cccc(C#CC(C)(C)O)c1)CC2 [Compound 10, 4-{3-[(3-isopropyl-1,4,6,7-tetrahydro-5H-pyrazolo[4,3-c]pyridin-5-yl)carbonyl]phenyl}-2-methylbut-3-yn-2-ol] |  | 
 |  | Mix: mixture of the double-stranded siRNA duplexes of SEQ ID NOS. 1-4 (nucleic acid, listed as RNA, chemistry not given here) chain 1: UGACUGAGUGGCUGAGUUA chain 2: GACCUAGCCCAGCUGAUAA chain 3: GAAUGGAUUUGACGUGAAC chain 4: GCCGAGACCUCUAAACUUA | about 90% | 
 |  | N.S. siRNA: nonsense siRNA control made from duplexes of SEQ ID NO. 9-12 (Table 5) (nucleic acid, listed as RNA, chemistry not given here) chain 1: UAGCGACUAAACACAUCAAUAGGCUAUGAAGAGAUAC chain 2: AUGUAUUGGCCUGUAUUAG chain 3: AUGAACGUGAAUUGCUCAA chain 4: UGGUUUACAUGUCGACUAA |  | ineffective in downregulating WASp
